According to publication PMC6272306, “LC-MS/MS Determination and Pharmacokinetic Study of Pedunculoside in Rat Plasma after Oral Administration of Pedunculoside and Ilex rotunda Extract” (Molecules, 2015):
Read-outs that look alike come from different tables or passages of the source.

Assays:
[1] = Stability of PDC in rat plasma QC samples under various storage conditions; format: in vitro ADME; conditions: n = 6
Description: The results were compared with those obtained with freshly prepared QC samples. It could be seen from Table 3 that the results are well within the acceptance limits. Stability of PDC in plasma was tested by the analysis of six replicates of QC samples […] exposed to various storage conditions. To assess the short-term stability study, QC samples were kept at 25 °C for at least 4 h and samples were processed at different time points and were determined and compared with the freshly prepared QC samples. For the long-term stability, QC samples were determined after storage of the plasma samples at −20 °C for 2 months. For freeze-thaw stability, QC samples were subjected to three freeze/thaw cycles (room temperature to −20 °C). For post-preparation stability, the processed QC samples stored in the autosampler trials for 12 h at 4 °C, were analyzed and compared with the freshly prepared QC samples.

[2] = system: hyperlipidemic albino rats; design: method as in doi:10.1076/phbi.37.1.37.6314; conditions: cited from earlier work
[3] = Pharmacokinetic study of PDC in rat plasma after oral administration of pure PDC or IRE (LC-MS/MS); format: in vivo, Sprague-Dawley rats; conditions: male, Sprague-Dawley, PDC in rat plasma, n = 6, mean ± SD; for CL/F: read-out: CLz/F (converted); for MRT last: read-out: MRT0–t; for MRT inf: read-out: MRT0–∞; for Vd/F: read-out: Vz/F; for half-life: read-out: t1/2z (converted)
Description: The analytical procedures described in Section 3.3 were performed to quantify PDC in rat plasma samples obtained from 24 male Sprague-Dawley rats. Out of these rats, 12 were orally administered with pure PDC, whereas 12 were orally administered with IRE. Establishing an intravenous dose group might provide the bioavailability of PDC, however, the present experiment aimed to compare the pharmacokinetic differences of PDC between monomer and IRE groups after oral administration. A fully validated LC-MS/MS method was developed and successfully applied to the pharmacokinetic behavior of PDC in rats after oral administration of the pure PDC and IRE, which were given at the same equivalent doses (42 and 84 mg/kg PDC). The mean plasma concentration-time profiles of PDC and the herbal extract after oral administration at different doses are illustrated in Figure 3, and the estimated pharmacokinetic parameters are presented in Table 4. A simple and rapid protein precipitation method was used for the preparation of all the plasma samples (calibration standards and QC samples, and real plasma samples post-dose). Plasma sample aliquots (75 µL) were added with IS solution (50 µL, 200 ng/mL) and methanol (500 µL) in tubes, then vortex-mixed for 1 min, and centrifuged at 14,000× g for 10 min. […] The dried residue was reconstituted in 100 µL of methanol-H2O (70:30, v/v) and centrifuged at 14,000× g for 5 min before analysis, and an aliquot of 5 µL was injected into LC-MS/MS systems for analysis. All experimental procedures and protocols were approved by the Animal Care and Use Committee of Jilin University (Changchun, China). All the rats were fasted for 12 h before the experiment, and were randomly divided into four groups (n = 6 per group). Group I and II were intragastrically administrated an oral dose of 42 and 84 mg/kg pure PDC, respectively. Group III and IV were intragastrically administrated an oral dose of 0.16 and 0.32 g/kg IRE, which was equivalent to 42 and 84 mg/kg PDC, respectively. Both pure PDC and IRE powder was suspended in 0.5% carboxymethyl cellulose sodium (CMC-Na) solution just before use. Blood samples (0.3 mL) were collected from the orbital sinus venous plexus at 0, 0.083, 0.25, 0.5, 0.75, 1, 1.5, 2, 3, 4, 6, 8, and 12 h after gavage dosing. After centrifuging at 5000× g for 10 min, the plasma samples were obtained and frozen at −20 °C until analysis. The pharmacokinetic parameters including Cmax, Tmax, t1/2z, AUC0–t, AUC0–∞, CLz/F, and Vz/F were calculated by non-compartmental method using the DAS 2.0 pharmacokinetics program (Chinese Pharmacology Society, Beijing, China). An independent-sample t-test was performed twice to evaluate the differences of pharmacokinetic parameters between the two groups.

[4] = processed rat plasma samples in autosampler, Post-preparation stability (4 °C for 12 h), nominal 0.60 ng/mL (LLOQ)
[5] = processed rat plasma samples in autosampler, Post-preparation stability (4 °C for 12 h), nominal 1.50 ng/mL (QC-low)
[6] = processed rat plasma samples in autosampler, Post-preparation stability (4 °C for 12 h), nominal 15.0 ng/mL (QC-medium)
[7] = processed rat plasma samples in autosampler, Post-preparation stability (4 °C for 12 h), nominal 180 ng/mL (QC-high)
[8] = rat plasma, Long-term stability (−20 °C for 2 months), nominal 0.60 ng/mL (LLOQ)
[9] = rat plasma, Long-term stability (−20 °C for 2 months), nominal 1.50 ng/mL (QC-low)
[10] = rat plasma, Long-term stability (−20 °C for 2 months), nominal 15.0 ng/mL (QC-medium)
[11] = rat plasma, Long-term stability (−20 °C for 2 months), nominal 180 ng/mL (QC-high)
[12] = rat plasma, Short-term (25 °C for 4 h), nominal 0.60 ng/mL (LLOQ)
[13] = rat plasma, Short-term (25 °C for 4 h), nominal 1.50 ng/mL (QC-low)
[14] = rat plasma, Short-term (25 °C for 4 h), nominal 15.0 ng/mL (QC-medium)
[15] = rat plasma, Short-term (25 °C for 4 h), nominal 180 ng/mL (QC-high)
[16] = rat plasma, Three freeze/thaw cycles (room temperature to −20 °C), nominal 0.60 ng/mL (LLOQ)
[17] = rat plasma, Three freeze/thaw cycles (room temperature to −20 °C), nominal 1.50 ng/mL (QC-low)
[18] = rat plasma, Three freeze/thaw cycles (room temperature to −20 °C), nominal 15.0 ng/mL (QC-medium)
[19] = rat plasma, Three freeze/thaw cycles (room temperature to −20 °C), nominal 180 ng/mL (QC-high)
[20] = 42 mg/kg PDC (IRE dosage equivalent to PDC dosage)
[21] = 84 mg/kg PDC (IRE dosage equivalent to PDC dosage)

Determined Conc. (Mean ± SD) [1, 4]: 0.596 ± 0.011 ng/mL
RE [1, 4]: −0.60%
Determined Conc. (Mean ± SD) [1, 5]: 1.65 ± 0.10 ng/mL
RE [1, 5]: 10.04%
Determined Conc. (Mean ± SD) [1, 6]: 13.81 ± 0.63 ng/mL
RE [1, 6]: −7.91%
Determined Conc. (Mean ± SD) [1, 7]: 183.17 ± 2.59 ng/mL
RE [1, 7]: 1.76%
Determined Conc. (Mean ± SD) [1, 8]: 0.573 ± 0.008 ng/mL
RE [1, 8]: −4.56%
Determined Conc. (Mean ± SD) [1, 9]: 1.52 ± 0.16 ng/mL
RE [1, 9]: 1.11%
Determined Conc. (Mean ± SD) [1, 10]: 15.96 ± 0.68 ng/mL
RE [1, 10]: 6.39%
Determined Conc. (Mean ± SD) [1, 11]: 160.70 ± 7.58 ng/mL
RE [1, 11]: −10.72%
Determined Conc. (Mean ± SD) [1, 12]: 0.673 ± 0.014 ng/mL
RE [1, 12]: 12.24%
Determined Conc. (Mean ± SD) [1, 13]: 1.44 ± 0.09 ng/mL
RE [1, 13]: −3.77%
Determined Conc. (Mean ± SD) [1, 14]: 14.88 ± 1.03 ng/mL
RE [1, 14]: −0.77%
Determined Conc. (Mean ± SD) [1, 15]: 192.71 ± 11.42 ng/mL
RE [1, 15]: 7.06%
Determined Conc. (Mean ± SD) [1, 16]: 0.570 ± 0.016 ng/mL
RE [1, 16]: −5.00%
Determined Conc. (Mean ± SD) [1, 17]: 1.38 ± 0.162 ng/mL
RE [1, 17]: −7.82%
Determined Conc. (Mean ± SD) [1, 18]: 16.32 ± 1.37 ng/mL
RE [1, 18]: 8.81%
Determined Conc. (Mean ± SD) [1, 19]: 162.85 ± 15.57 ng/mL
RE [1, 19]: −9.53%
AUC(0-inf) [3, 20]: 379 ± 84.8 ng·h/mL
AUC(0-t) [3, 20]: 374 ± 82.9 ng·h/mL
Cmax [3, 20]: 95.2 ± 7.93 ng/mL
Tmax [3, 20]: 1.6 ± 0.42 h
CL/F [3, 20]: 1930 mL/min/kg
MRT last [3, 20]: 3.17 ± 0.45 h
MRT inf [3, 20]: 3.33 ± 0.48 h
Vd/F [3, 20]: 287 ± 63.5 L/kg
half-life [3, 20]: 1.73 ± 0.11 h
AUC(0-inf) [3, 21]: 665 ± 151 ng·h/mL
AUC(0-t) [3, 21]: 661 ± 149 ng·h/mL
Cmax [3, 21]: 174 ± 12.9 ng/mL
Tmax [3, 21]: 1.8 ± 0.91 h
CL/F [3, 21]: 2110 mL/min/kg
MRT last [3, 21]: 3.08 ± 0.42 h
MRT inf [3, 21]: 3.15 ± 0.44 h
Vd/F [3, 21]: 273 ± 45.6 L/kg
half-life [3, 21]: 1.5 ± 0.08 h
Structure (SMILES): C[C@@H]1CC[C@]2(C(=O)O[C@@H]3O[C@H](CO)[C@@H](O)[C@H](O)[C@H]3O)CC[C@]3(C)C(=CC[C@@H]4[C@@]5(C)CC[C@H](O)[C@@](C)(CO)[C@@H]5CC[C@]43C)[C@@H]2[C@]1(C)O [PDC, Pedunculoside]
hypolipidemic activity [2]: significant hypolipidemic activity
